Data from patent US12421179B2, “Production method for radiolabeled aryl compound” (OSAKA UNIVERSITY, priority 2017, dated 2025).

Tests used:
[1] = system: C6 glioma cell derived from rat; experiment: Glioma cell uptake experiment; type: cell-based; conditions: for cell uptake reduced by LAT1 inhibitor (BCH) to fraction of uptake: 100 mM BCH addition group; for cell uptake reduced by competitive inhibitor (Phe) to fraction of uptake: 1% Phe addition group; for specificity of cell uptake (via LAT1): concluded from Phe and BCH inhibition; for cell uptake (amount of radioactivity taken up intracellularly): inhibitor-free group, amino acid-free HBSS medium
Experimental: The concentration of the 4-211At-L-phenylalanine (4-^211At-Phe) solution prepared in Example 2 and the 3-^211At-D,L-phenylalanine (3-^211At-Phe) solution prepared in Example 7 were each adjusted to 5 MBq/2 mg·ml. C6 glioma cell derived from rat was seeded on each well of 24-well plate by 5×10^5 cells/well, is and the cells were used in the next day's experiment (cell number: about 1×10^6 cells/well). Before the experiment, the medium was replaced with an amino acid-free HBSS medium (0.5 ml/well). 4-^211At-Phe or 3-^211At-Phe was added to each well of the plate by 10 μl, and the wells were divided into three groups of inhibitor-free group, 1% Phe addition group (competitive inhibitor) and 100 mM BCH addition group (LAT1 inhibitor), and incubated at 37° C. for 30 minutes or 60 minutes. After the incubation, the culture solution was removed, and the cells were washed with PBS, and lysed, and the amount of radioactivity taken up intracellularly was measured. […] Moreover, the cell uptake after 60 minutes was reduced, compared to that after 30 minutes. The competitive inhibitor (Phe) reduced the cell uptake of 4-^211At-Phe and 3-^211At-Phe to ½ to ⅓, and LAT1 inhibitor (BCH) reduced the cell uptake of 4-^211At-Phe and 3-^211At-Phe to ¼ to ⅛. […] Especially, the cell uptake of 3-^211At-Phe was more than that of 4-^211At-Phe, and therefore, 3-211At-Phe can be further expected for the above-mentioned application.

C6 glioma tumor = experiment: SPECT imaging of C6 glioma-transplanted rat; type: in vivo; conditions: 1 MBq, tail vein; 30 minutes and 3 hours after administration; tumor in both flanks
Experimental: The 4-^211At-L-phenylalanine (4-^211At-Phe) (1 MBq) prepared in Example 2 was administered to the tail vein of the glioma-transplanted rat, and the rat was imaged by SPECT camera (E-cam, Siemens). In both images, the is accumulation of 4-^211At-Phe in the tumor (both flanks, indicated by arrows in the figure) was observed. Therefore, 4-^211At-Phe can be expected to be applied to RI internal therapy or diagnosis for cancer.

SMILES | cell uptake reduced by LAT1 inhibitor (BCH) to fraction of uptake [1] | cell uptake reduced by competitive inhibitor (Phe) to fraction of uptake [1] | cell uptake after 60 minutes compared to that after 30 minutes ([1]; C6 glioma cells, 37° C.) | cell uptake compared with 4-^211At-Phe ([1]; C6 glioma cells, 37° C., 30 or 60 minutes) | specificity of cell uptake (via LAT1) [1] | cell uptake (amount of radioactivity taken up intracellularly) ([1]; 37° C., 30 or 60 minutes) | uptake by cancer cells (general statement) ([1]; summary statement in the description) | accumulation in the tumor (SPECT images) (C6 glioma tumor)
NC(Cc1cccc([211At])c1)C(=O)O (racemic) [3-^211At-Phe, 3-^211At-D,L-phenylalanine] | ¼ to ⅛ | ½ to ⅓ | reduced | slightly more than that of 4-^211At-Phe | specifically taken up by the cells via LAT1 | taken up by the cell | taken up in large amounts by cancer cells | –
N[C@@H](Cc1ccc([211At])cc1)C(=O)O [4-^211At-Phe, 4-^211At-L-phenylalanine] | ¼ to ⅛ | ½ to ⅓ | reduced | – | specifically taken up by the cells via LAT1 | taken up by the cell | – | observed
